Test results taken from PubChem BioAssay AID192 (DTP/NCI, 2004).
Several values for one entry are separate records, joined by “and”; a condition that tells them apart may be missing. Identical values can stand only once. Inconclusive results and toxic doses are left out. Peptide text beside a SMILES is read from it.

Test system: BDF1 mice, B16 melanoma ip, median survival T/C
Test: NCI In Vivo Anticancer Drug Screen. Data for tumor model B16 Melanoma (intraperitoneal) in B6D2F1 (BDF1) mice
Conditions: endpoint: median survival time, higher = longer survival
How it was run: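 Tumor-bearing mice received test compound or vehicle. Survival or tumor size was then measured in both groups. The treated-group figure was divided by the control-group figure.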

For `Cc1cc(OC(=O)Nc2ccccc2Cl)ccc1[N+](=O)[O-]`, the T/C (dose: 100.0 mg/kg/injection, schedule: Q04DX003 (ip), vehicle: Klucel (hydroxypropylcellulose) (HPC)) was 96 % of control, the T/C (dose: 200.0 mg/kg/injection, schedule: Q04DX003 (ip), vehicle: Klucel (hydroxypropylcellulose) (HPC)) was 96 % of control and the T/C (dose: 400.0 mg/kg/injection, schedule: Q04DX003 (ip), vehicle: Klucel (hydroxypropylcellulose) (HPC)) was 93 % of control.
With `Oc1ccc2ccccc2c1Cc1c(O)ccc2ccccc12` the T/C (dose: 25.0 mg/kg/injection, schedule: Q01DX009 (ip), vehicle: saline with Tween-80) was 93 % of control, the T/C (dose: 50.0 mg/kg/injection, schedule: Q01DX009 (ip), vehicle: saline with Tween-80) was 91 % of control and the T/C (dose: 100.0 mg/kg/injection, schedule: Q01DX009 (ip), vehicle: saline with Tween-80) was 94 % of control. For the same compound, the T/C (dose: 200.0 mg/kg/injection, schedule: Q01DX009 (ip), vehicle: saline with Tween-80) was 90 % of control.
For `CCCCNC(C)(C)C1(c2ccc(Cl)cc2)SSC(c2ccc(Cl)cc2)(C(C)(C)NCCCC)SS1` (centres undefined), the T/C (dose: 10.0 mg/kg/injection, schedule: Q01DX009 (ip), vehicle: Klucel (hydroxypropylcellulose) (HPC)) was 94 % of control, the T/C (dose: 20.0 mg/kg/injection, schedule: Q01DX009 (ip), vehicle: Klucel (hydroxypropylcellulose) (HPC)) was 89 % of control and the T/C (dose: 40.0 mg/kg/injection, schedule: Q01DX009 (ip), vehicle: Klucel (hydroxypropylcellulose) (HPC)) was 86 % of control.
With `CCCCn1ccnc1C` the T/C (dose: 6.25 mg/kg/injection, schedule: Q01DX009 (ip), vehicle: water) was 106 % of control, the T/C (dose: 12.5 mg/kg/injection, schedule: Q01DX009 (ip), vehicle: water) was 91 % of control and the T/C (dose: 25.0 mg/kg/injection, schedule: Q01DX009 (ip), vehicle: water) was 101 % of control. The T/C (dose: 50.0 mg/kg/injection, schedule: Q01DX009 (ip), vehicle: water) was 102 % of control.
`CC(NC(=O)C(C)NC(=O)C(N)CCC(=O)O)C(=O)O` (stereo not drawn) (H-Glu-Ala-Ala-OH; configuration not given here) was tested, and the T/C (dose: 50.0 mg/kg/injection, schedule: Q01DX009 (ip), vehicle: saline) was 111 % of control, the T/C (dose: 100.0 mg/kg/injection, schedule: Q01DX009 (ip), vehicle: saline) was 96 % of control and the T/C (dose: 200.0 mg/kg/injection, schedule: Q01DX009 (ip), vehicle: saline) was 105 % of control. The T/C (dose: 400.0 mg/kg/injection, schedule: Q01DX009 (ip), vehicle: saline) was 94 % of control.
`CCc1nc(N)nc(N)c1-c1ccc(Cl)c(Cl)c1` was tested, and the T/C (dose: 4.0 mg/kg/injection, schedule: Q01DX009 (ip), vehicle: Klucel (hydroxypropylcellulose) (HPC)) was 95 % of control, the T/C (dose: 8.0 mg/kg/injection, schedule: Q01DX009 (sc), vehicle: Klucel (hydroxypropylcellulose) (HPC)) was 123 % of control and the T/C (dose: 64.0 mg/kg/injection, schedule: Q01DX001 (ip), vehicle: Klucel (hydroxypropylcellulose) (HPC)) was 102 % of control.
For `COc1cccc2c1C(=N)c1c(O)c3c(c(O)c1C2=O)C[C@@](O)(C(C)=O)C[C@@H]3OC1CC(N)C(O)C(C)O1` (some centres undefined), the T/C (dose: 1.0 mg/kg/injection, schedule: Q01DX009 (ip), vehicle: water) was 177 % of control, the T/C (dose: 1.56 mg/kg/injection, schedule: Q01DX001 (ip), vehicle: water) was 163 % of control and the T/C (dose: 2.0 mg/kg/injection, schedule: Q01DX009 (ip), vehicle: water) was 205 % of control. For the same compound, the T/C (dose: 3.13 mg/kg/injection, schedule: Q01DX001 (ip), vehicle: water) was 159 % of control, the T/C (dose: 4.0 mg/kg/injection, schedule: Q01DX009 (ip), vehicle: water) was 201 % of control and the T/C (dose: 6.25 mg/kg/injection, schedule: Q01DX001 (ip), vehicle: water) was 166 % of control and 168 % of control and 185 % of control. For the same compound, the T/C (dose: 12.0 mg/kg/injection, schedule: Q01DX001 (ip), vehicle: water) was 94 % of control, the T/C (dose: 12.5 mg/kg/injection, schedule: Q01DX001 (ip), vehicle: water) was 164 % of control and 201 % of control and the T/C (dose: 20.0 mg/kg/injection, schedule: Q01DX001 (ip), vehicle: water) was 95 % of control.
In the case of `C1CN1P1(N2CC2)=NP(N2CC2)(N2CC2)=NP(N2CC2)(N2CC2)=NP(N2CC2)(N2CC2)=N1`, the T/C (dose: 1.0 mg/kg/injection, schedule: Q01DX009 (ip), vehicle: saline) is reported as 105 % of control, the T/C (dose: 1.0 mg/kg/injection, schedule: Q02DX009 (ip), vehicle: saline) is reported as 88 % of control and the T/C (dose: 2.0 mg/kg/injection, schedule: Q01DX009 (ip), vehicle: saline) is reported as 116 % of control. For the same compound, the T/C (dose: 2.0 mg/kg/injection, schedule: Q02DX009 (ip), vehicle: saline) was 95 % of control and 105 % of control, the T/C (dose: 4.0 mg/kg/injection, schedule: Q01DX009 (ip), vehicle: saline) was 120 % of control and the T/C (dose: 4.0 mg/kg/injection, schedule: Q02DX009 (ip), vehicle: saline) was 87 % of control and 90 % of control. The T/C (dose: 8.0 mg/kg/injection, schedule: Q01DX009 (ip), vehicle: saline) was 108 % of control, the T/C (dose: 8.0 mg/kg/injection, schedule: Q02DX009 (ip), vehicle: saline) was 100 % of control and the T/C (dose: 16.0 mg/kg/injection, schedule: Q01DX009 (ip), vehicle: saline) was 93 % of control. For the same compound, the T/C (dose: 16.0 mg/kg/injection, schedule: Q02DX009 (ip), vehicle: saline) was 98 % of control and 100 % of control, the T/C (dose: 32.0 mg/kg/injection, schedule: Q01DX009 (ip), vehicle: saline) was 97 % of control and the T/C (dose: 32.0 mg/kg/injection, schedule: Q02DX009 (ip), vehicle: saline) was 87 % of control and 100 % of control. For the same compound, the T/C (dose: 64.0 mg/kg/injection, schedule: Q01DX009 (ip), vehicle: saline) was 108 % of control and the T/C (dose: 64.0 mg/kg/injection, schedule: Q02DX009 (ip), vehicle: saline) was 87 % of control and 94 % of control.
